Data as given in publication PMC4016139, “Inhibition of K^+ Transport through Na^+, K^+-ATPase by Capsazepine: Role of Membrane Span 10 of the α-Subunit in the Modulation of Ion Gating” (PLoS ONE, 2014).

Test system: T1, Na+,K+-ATPase of adult rat ventricular myocytes
T1 construct: gene Atp1a1; native pump in isolated adult male ventricular myocytes, whole-cell patch clamp; with Sodium/potassium-transporting ATPase subunit beta-1
Experiment: whole-cell ruptured-patch pump current (K+-dependent Ip)
Type: cell-based
Settings: 10 min perfusion, 5 mM external K+, 140 mM NaCl, pH 7.2, 35 °C

Structure (SMILES): Oc1cc2c(cc1O)CN(C(=S)NCCc1ccc(Cl)cc1)CCC2 [Capsazepine]
- % inhibition at 30 μM: 85%
